Experimental data reported in patent publication US20230219965A1 (KSQ Therapeutics, Inc., priority 2020, published 2023).
Read-outs that look alike come from different tables or passages of the source.

Key:
USP1/UAF1 enzyme = USP1/UAF1 enzyme (Homo sapiens, UniProt O94782); assay: USP1/UAF1 deubiquitination assay (ubiquitin-rhodamine 110 substrate); assay type: biochemical; conditions: read-out: USP1 IC50 (Ub-Rho)
In short: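 Cleavage of 150 nM ubiquitin-rhodamine 110 by 0.05 nM USP1/UAF1 was followed as fluorescence (Ex480/Em540, kinetic, 30 min) in Tris-HCl pH 7.8 buffer with EDTA, BSA, DTT and Tween-20. Compounds, top 10 μM, were preincubated with enzyme 10 min; % inhibition against no-enzyme and DMSO wells gave four-parameter IC50s.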

[1] = ADME solubility determination in PBS at pH 2.0 and pH 7.4; assay type: physicochemical; conditions: phosphate buffered saline, 25 °C, thermodynamic from solid
Experimental: Certain Compounds of the Disclosure were assessed for ADME solubility at pH 2.0 and pH 7.4.
Stock solutions were prepared by adding each compound to DMSO at a concentration of 10 mM. Samples were prepared by adding 50 μL of each stock solution to separate vials. The vials were loaded onto a 96-well rack and dried. 500 μL of Phosphate Buffered Saline (PBS) pH 7.4 or PBS pH 2.0 were added into each vial. The vials were then shaken at 25° C. and 1,100 rpm for 24 hours.
After 24 hours, the vials were centrifuged at 3220 G and 25° C. for 30 minutes. The supernatant fluid was analyzed by LC-MS/MS against a standard of known concentration. The solubility of each sample was then calculated using the equation below: […]
where DF is the dilution factor.

[2] = Liver microsomal metabolic stability, rat liver microsomes (RLM); conditions: rat, liver microsomes, t1/2 (min) in RLM, 1 μM compound, 1 mg/mL microsomes, NADPH
[3] = Liver microsomal metabolic stability, human liver microsomes (HLM); conditions: human, liver microsomes
[4] = pH 2, aqueous buffer, PBS pH 2.0, 25° C., read-out: Solubility at pH 2.0
[5] = pH 7.4, aqueous buffer, PBS pH 7.4, 25° C., read-out: Solubility at pH 7.4

USP1/UAF1 enzyme, sequence (O94782 whole entry): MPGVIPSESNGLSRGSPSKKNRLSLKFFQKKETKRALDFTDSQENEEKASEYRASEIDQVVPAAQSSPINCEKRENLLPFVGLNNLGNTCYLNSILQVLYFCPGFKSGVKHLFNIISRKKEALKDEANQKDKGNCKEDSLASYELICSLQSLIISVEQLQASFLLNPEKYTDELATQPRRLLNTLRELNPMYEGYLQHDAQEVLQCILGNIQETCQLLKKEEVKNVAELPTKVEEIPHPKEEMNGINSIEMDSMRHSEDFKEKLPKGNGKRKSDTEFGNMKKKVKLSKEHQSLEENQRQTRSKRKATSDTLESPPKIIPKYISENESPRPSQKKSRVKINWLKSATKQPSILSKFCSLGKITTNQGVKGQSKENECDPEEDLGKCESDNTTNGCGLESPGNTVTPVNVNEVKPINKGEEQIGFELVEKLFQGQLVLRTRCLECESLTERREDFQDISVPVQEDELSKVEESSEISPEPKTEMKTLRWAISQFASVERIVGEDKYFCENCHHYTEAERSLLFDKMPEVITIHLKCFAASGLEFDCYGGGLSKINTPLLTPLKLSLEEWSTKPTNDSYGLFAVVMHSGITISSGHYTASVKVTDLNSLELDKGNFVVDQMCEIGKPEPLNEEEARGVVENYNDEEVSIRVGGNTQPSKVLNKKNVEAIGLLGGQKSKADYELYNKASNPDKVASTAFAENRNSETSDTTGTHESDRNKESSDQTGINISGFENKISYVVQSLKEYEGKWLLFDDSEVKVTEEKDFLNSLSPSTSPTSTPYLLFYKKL
USP1/UAF1 enzyme, sequence (Q8TAF3 whole entry partner): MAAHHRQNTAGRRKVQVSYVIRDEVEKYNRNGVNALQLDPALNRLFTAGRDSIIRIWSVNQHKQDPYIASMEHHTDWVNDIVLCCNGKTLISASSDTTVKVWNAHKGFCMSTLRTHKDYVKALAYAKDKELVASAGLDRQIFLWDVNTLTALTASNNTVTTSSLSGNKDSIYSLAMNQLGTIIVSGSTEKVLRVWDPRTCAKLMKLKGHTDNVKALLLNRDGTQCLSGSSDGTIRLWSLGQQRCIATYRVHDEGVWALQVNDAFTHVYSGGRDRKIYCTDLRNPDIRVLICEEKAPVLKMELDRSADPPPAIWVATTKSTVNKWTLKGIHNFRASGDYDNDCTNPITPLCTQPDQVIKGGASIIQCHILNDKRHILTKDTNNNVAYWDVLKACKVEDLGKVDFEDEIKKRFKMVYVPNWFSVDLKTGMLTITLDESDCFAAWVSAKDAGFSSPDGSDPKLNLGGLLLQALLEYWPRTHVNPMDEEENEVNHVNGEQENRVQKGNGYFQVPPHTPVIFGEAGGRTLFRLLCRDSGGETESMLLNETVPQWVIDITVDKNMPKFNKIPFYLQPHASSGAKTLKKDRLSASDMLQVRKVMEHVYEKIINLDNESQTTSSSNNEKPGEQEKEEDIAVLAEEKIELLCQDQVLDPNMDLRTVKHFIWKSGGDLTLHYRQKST

| Compound | IC50 (USP1/UAF1 enzyme) [nM] | solubility at 24 h [1, 4] [µM] | solubility at 24 h [1, 5] [µM] | half-life at 1 μM [2] [min] | half-life at 1 μM [3] [min] |
| --- | --- | --- | --- | --- | --- |
| COc1ccnc(C2CC2)c1-c1nc2n(n1)CCC(=O)N2Cc1ccc(-c2nc(C(F)(F)F)cn2C(C)C)c(F)c1 [Example 207] | 100 to 500 | ≥ 10 | < 10 | > 25 | < 25 |
| COc1cc(C#N)nn1-c1ccc(CN2C(=O)CCn3nc(-c4c(Cl)cnn4C(C)C)cc32)cc1 [Example 106] | < 100 | < 10 | < 10 | > 25 | > 25 |
| COc1ncnc(C2CC2)c1-c1cc2n(n1)CC(C)C(=O)N2Cc1ccc(-c2nc(C(F)(F)F)cn2C)cc1 (stereo not drawn) [Example 32] | < 100 | ≥ 10 | < 10 | > 25 | > 25 |
| Cc1cnn(C(C)C)c1-c1cc2n(n1)CCCN2Cc1ccc(-n2nc(C(F)(F)F)cc2C)c(F)c1 [Example 56] | < 100 | < 10 | < 10 | < 25 | < 25 |
| Cc1cnn(C(C)C)c1-c1cc2n(n1)CCCN2Cc1ccc(-n2nc(C(F)(F)F)cc2C)cc1 [Example 52, 2-(1-isopropyl-4-methyl-1H-pyrazol-5-yl)-4-(4-(5-methyl-3-(trifluoromethyl)-1H-pyrazol-1-yl)benzyl)-4,5,6,7-tetrahydropyrazolo[1,5-α]pyrimidine] | < 100 | < 10 | < 10 | < 25 | < 25 |
| CCn1cc(C(F)(F)F)nc1-c1ccc([C@@H](C)n2c(=O)ccn3nc(-c4c(OC)ncnc4C4CC4)nc23)cc1F [Example 341, (R)-2-(4-cyclopropyl-6-methoxypyrimidin-5-yl)-4-(1-(4-(1-ethyl-4-(trifluoromethyl)-1H-imidazol-2-yl)-3-fluorophenyl)ethyl)-[1,2,4]triazolo[1,5-a]pyrimidin-5(4H)-one] | < 100 | ≥ 10 | ≥ 10 | > 25 | > 25 |
| CCn1cc(C(F)(F)F)nc1-c1ccc([C@H](C)N2C(=O)CCn3nc(-c4c(Cl)cnn4C(C)C)nc32)cc1OC [Example 179] | 100 to 500 | ≥ 10 | < 10 | < 25 | < 25 |
| Cc1cnn(C(C)C)c1-c1nn2c(c1Cl)N(Cc1ccc(-c3nc(C(F)(F)F)cn3C)cc1)C(=O)CC2 [Example 34] | 100 to 500 | < 10 | < 10 | < 25 | < 25 |
| CCn1cc(C(F)(F)F)nc1-c1ccc(CN2C(=O)CCn3nc(-c4c(C#N)cnn4C(C)C)cc32)cc1 [Example 156] | < 100 | < 10 | < 10 | > 25 | > 25 |
| Cc1cn(C)nc1-c1ccc(CN2C(=O)CCn3nc(-c4c(Cl)cnn4C(C)C)cc32)cc1 [Example 93] | < 100 | < 10 | < 10 | < 25 | < 25 |
| COc1cc(-c2nc(C(F)(F)F)cn2C(C)C)c(F)cc1CN1C(=O)CCn2nc(-c3c(OC)ncnc3C3CC3)nc21 [Example 202] | < 100 | < 10 | < 10 | > 25 | > 25 |
| COc1ccnc(C(C)C)c1-c1cc2n(n1)CCC(=O)N2Cc1ccc(-c2nc(C(F)(F)F)cn2C)cc1 [Example 13, 2-(2-isopropyl-4-methoxypyridin-3-yl)-4-(4-(1-methyl-4-(trifluoromethyl)-1H-imidazol-2-yl)benzyl)-6,7-dihydropyrazolo[1,5-a]pyrimidin-5(4H)-one] | 100 to 500 | ≥ 10 | ≥ 10 | < 25 | < 25 |
| COc1cc([C@H](C)N2C(=O)CCn3nc(-c4c(OC)ncnc4C4CC4)cc32)ccc1-c1nc(C(F)(F)F)cn1C(C)C [Example 128] | 100 to 500 | ≥ 10 | < 10 | < 25 | < 25 |
| CCn1cc(C(F)(F)F)nc1-c1ccc(N[C@@H]2CCCn3nc(-c4c(Cl)cnn4[C@H](C)CF)cc32)cc1 (single isomer, unassigned) [Example 323] | < 100 | < 10 | < 10 | > 25 | > 25 |
| CCn1cc(C(F)(F)F)nc1-c1ccc(CN2C(=O)CCn3nc(-c4c(C(F)F)cnn4C(C)C)cc32)cc1F [Example 328, 2-(4-(difluoromethyl)-1-isopropyl-1H-pyrazol-5-yl)-4-(4-(1-ethyl-4-(trifluoromethyl)-1H-imidazol-2-yl)-3-fluorobenzyl)-6,7-dihydropyrazolo[1,5-α]pyrimidin-5(4H)-one] | 100 to 500 | ≥ 10 | < 10 | > 25 | > 25 |
| Cc1cnn(C(C)C)c1-c1cc2n(n1)C(C)CC(=O)N2Cc1ccc(-c2nc(C(F)(F)F)cn2C)cc1 (stereo not drawn) [Example 36, 2-(1-isopropyl-4-methyl-1H-pyrazol-5-yl)-7-methyl-4-(4-(1-methyl-4-(trifluoromethyl)-1H-imidazol-2-yl)benzyl)-6,7-dihydropyrazolo[1,5-α]pyrimidin-5(4H)-one] | < 100 | ≥ 10 | ≥ 10 | < 25 | < 25 |
| CCn1cc(C(F)(F)F)nc1-c1ccc([C@H](C)N2C(=O)CCn3nc(-c4c(OC(F)F)ncnc4C4CC4)nc32)cc1 [Example 209] | < 100 | ≥ 10 | < 10 | < 25 | < 25 |
| CC(C)n1ncc(Cl)c1-c1cc2n(n1)CCC(=O)N2Cc1ccc(-c2cn(C)c(C(F)(F)F)n2)c(F)c1 [Example 130] | 100 to 500 | < 10 | < 10 | > 25 | > 25 |
| CCn1cc(C(F)(F)F)nc1-c1c(F)cc(CN2C(=O)CCn3nc(-c4c(Cl)cnn4C(C)C)nc32)cc1OC [Example 187] | 100 to 500 | < 10 | < 10 | < 25 | > 25 |
| CC(C)n1ncc(Cl)c1-c1cc2n(n1)CC(O)C(=O)N2Cc1ccc(-c2nc(C(F)(F)F)cn2C)cc1 (stereo not drawn) [Example 231, 2-(4-chloro-1-isopropyl-1H-pyrazol-5-yl)-6-hydroxy-4-(4-(1-methyl-4-(trifluoromethyl)-1H-imidazol-2-yl)benzyl)-6,7-dihydropyrazolo[1,5-α]pyrimidin-5(4H)-one] | 100 to 500 | < 10 | < 10 | > 25 | > 25 |
| CCn1cc(C(F)(F)F)nc1-c1ccc(CN2C(=O)CCn3nc(-c4c(Cl)cnn4C(C)C)c(C#N)c32)cc1 [Example 223, 2-(4-chloro-1-isopropyl-1H-pyrazol-5-yl)-4-(4-(1-ethyl-4-(trifluoromethyl)-1H-imidazol-2-yl)benzyl)-5-oxo-4,5,6,7-tetrahydropyrazolo[1,5-α]pyrimidine-3-carbonitrile] | < 100 | < 10 | < 10 | > 25 | < 25 |
| COc1ncnc(C2CC2)c1-c1cc2n(n1)CCC(=O)N2Cc1ccc(-n2nc(C(F)(F)F)cc2C)cc1 [Example 4, 2-(4-cyclopropyl-6-methoxypyrimidin-5-yl)-4-(4-(5-methyl-3-(trifluoromethyl)-1H-pyrazol-1-yl)benzyl)-6,7-dihydropyrazolo[1,5-a]pyrimidin-5(4H)-one] | < 100 | < 10 | < 10 | > 25 | > 25 |
| COCc1cc(C(F)(F)F)nn1-c1ccc(CN2C(=O)CCn3nc(-c4c(Cl)cnn4C(C)C)cc32)cc1 [Example 100] | < 100 | < 10 | < 10 | < 25 | < 25 |
| CCn1cc(C(F)(F)F)nc1-c1ccc([C@H](C)n2c(=O)ccn3nc(-c4c(OC)ncnc4C4CC4)nc23)cc1F [Example 342, (S)-2-(4-cyclopropyl-6-methoxypyrimidin-5-yl)-4-(1-(4-(1-ethyl-4-(trifluoromethyl)-1H-imidazol-2-yl)-3-fluorophenyl)ethyl)-[1,2,4]triazolo[1,5-a]pyrimidin-5(4H)-one] | < 100 | ≥ 10 | ≥ 10 | > 25 | > 25 |
